Source: patent US12011460B2, “Expansion of NK and DC cells in vivo mediating immune response” (UNIVERSITE DE MONTREAL, priority 2018, dated 2024)

System: cord blood derived CD34+ cells
Assay: Ex vivo culture of cord blood derived CD34+ cells, graft composition by flow
Type: cell-based, human
Conditions: expanded cord blood; UM171 35 nM, SR1 500 nM

SMILES	dendritic cells population (CD86+CD34+) share of the graft
CC(C)n1cnc2c(NCCc3ccc(O)cc3)nc(-c3csc4ccccc34)nc21 [SR1]	less than 5%

System: CD34 + CD45RA- cells
Assay: Expansion of CD34+CD45RA- cells compared to DMSO (EC50)
Type: cell-based
Conditions: concentration of compound necessary to expand 50% more of CD34+CD45RA- cells as compared to cells treated with DMSO

SMILES	EC50 [nM]
COC(=O)c1ccc2c(c1)[nH]c1nc(Cc3ccccc3)nc(NCCCO)c12 [Compound 47]	26
COC(=O)c1ccc2c(c1)[nH]c1nc(Cc3cccnc3)nc(NCCCN3CCCCC3)c12 [Compound 4]	14
COC(=O)c1ccc2c(c1)[nH]c1nc(Cc3ccccc3)nc(NCCCCO)c12 [Compound 54]	118
COC(=O)c1ccc2c(c1)[nH]c1nc(C(O)c3ccccc3)nc(NCCCN3CCCCC3)c12 (centres unmarked) [Compound 14]	4
CCNCCNc1nc(Cc2ccccc2)nc2[nH]c3cc(C(=O)OC)ccc3c12 [Compound 57]	4.8
CN(CCC[N+](C)(C)C)c1nc(Cc2ccccc2)nc2[nH]c3cc(-c4nnn(C)n4)ccc3c12 [Compound 26]	484
CN(CCCNC(=O)COCCOCCN)CCCNc1nc(Cc2ccccc2)nc2[nH]c3cc(-c4nnn(C)n4)ccc3c12 [Compound 23]	249
COC(=O)c1ccc2c(c1)[nH]c1nc(Cc3ccccc3)nc(NCC(O)CO)c12 (centres unmarked) [Compound 44]	59
COC(=O)c1ccc2c(c1)[nH]c1nc(Cc3ccccc3)nc(NCC3CCCN(C(=O)OC)C3)c12 (centres unmarked) [Compound 55]	79
CNCCCNc1ncnc2[nH]c3cc(-c4nnn(C)n4)ccc3c12 [Compound 30]	135
Cn1nnc(-c2cnc3c(c2)[nH]c2nc(Cc4ccccc4)nc(N[C@H]4CC[C@H](N)CC4)c23)n1 [Compound 27]	367
COC(=O)c1ccc2c(c1)[nH]c1nc(Cc3ccccc3)nc(NCCN3CCOCC3)c12 [Compound 42]	12
CN(CCCN)CCCNc1nc(Cc2cccc(Br)c2)nc2[nH]c3cc(-c4nnn(C)n4)ccc3c12 [Compound 25]	115
COC(=O)c1ccc2c(c1)[nH]c1nc(CCc3ccccc3)nc(NCCCN(C)CC(O)C[N+](C)(C)C)c12 (centres unmarked) [Compound 53]	117
COC(=O)c1ccc2c(c1)[nH]c1nc(Cc3ccccc3)nc(NCCCN3C(=O)CCC3=O)c12 [Compound 49]	41
Cn1nnc(-c2ccc3c(c2)[nH]c2ncnc(NCCCCN4CCCCC4)c23)n1 [Compound 29]	36
CNC(=O)c1ccc2c(c1)[nH]c1nc(Cc3ccccc3)nc(NCCCN3CCCCC3)c12 [Compound 12]	2440
COC(=O)c1ccc2c(c1)[nH]c1cc(Cc3cccc(O)c3)nc(NCCCCN3CCCC3)c12 [Compound 35]	44
COC(=O)c1ccc2c(c1)[nH]c1nc(Cc3ccccc3)nc(NCCCN(C)CC(O)COCc3ccccc3)c12 (centres unmarked) [Compound 11]	101
CN(CCCN)CCCNc1nc(Cc2ccccc2Br)nc2[nH]c3cc(-c4nnn(C)n4)ccc3c12 [Compound 24]	51
COC(=O)c1ccc2c(c1)[nH]c1nc(Cc3cccc(CC(=O)O)c3)nc(NCCCN(C)CCCN)c12 [Compound 20]	113

SMILES	EC50 [nM]
COC(=O)c1ccc2c(c1)[nH]c1nc(Cc3ccccc3)nc(NCC(O)CN3CCCCC3)c12 (centres unmarked) [Compound 10]	7
C#CCOC(CNc1nc(Cc2ccccc2)nc2[nH]c3cc(C(=O)OC)ccc3c12)CN1CCCCC1 (centres unmarked) [Compound 9]	24
COC(=O)c1ccc2c(c1)[nH]c1cc(Cc3cccc(OC)c3)nc(NCCCCN3CCCC3)c12 [Compound 34]	76
COC(=O)c1ccc2c(c1)[nH]c1nc(Cc3ccccc3)nc(NCCCN(C)CCCNc3ncnc4[nH]c5ccccc5c34)c12 [Compound 21]	19
CCOC(=O)c1ccc2c(c1)[nH]c1nc(Cc3ccccc3)nc(NCCCN3CCCCC3)c12 [Compound 5]	154
CN1CCN(c2ccc(CNc3nc(Cc4ccccc4)nc4[nH]c5cc(-c6nnn(C)n6)ccc5c34)cc2)CC1 [Compound 22]	100
Cn1nnc(-c2ccc3c(c2)[nH]c2nc(Cc4ccccc4)nc(NCCOCCO)c23)n1 [Compound 46]	141
C#Cc1cccc(Cc2nc(NCCN(C)CCN)c3c(n2)[nH]c2cc(-c4nnn(C)n4)ccc23)c1 [Compound 32]	104
COC(=O)c1ccc2c(c1)[nH]c1nc(Cc3ccccc3)nc(NCCCCCN(C)C)c12 [Compound 40]	2
COC(=O)c1ccc2c(c1)[nH]c1nc(Cc3ccccc3)nc(SCCCN3CCCCC3)c12 [Compound 15]	327
COC(=O)c1ccc2c(c1)[nH]c1nc(Cc3ccccc3)nc(NCC3CCCNC3)c12 (centres unmarked) [Compound 52]	7
COC(=O)c1ccc2c(c1)[nH]c1nc(Cc3ccccc3)nc(NCCN(C)CC(F)F)c12 [Compound 45]	336
COC(=O)c1ccc2c(c1)[nH]c1nc(Cc3cccc(C)c3)nc(NCCCN3CCCCC3)c12 [Compound 1]	38
COC(=O)c1ccc2c(c1)[nH]c1nc(Cc3cccc(C(O)C(F)(F)F)c3)nc(NCCCN3CCCCC3)c12 (centres unmarked) [Compound 6]	16
CCN(CC)CCN(CC)c1nc(Cc2ccccc2)nc2[nH]c3cc(C(=O)OC)cnc3c12 [Compound 31]	394
COC(=O)c1ccc2c(c1)[nH]c1nc(Cc3ccccc3)nc(NCCCN(C)CCCNC(=N)N)c12 [Compound 48]	61
COC(=O)c1ccc2c(c1)[nH]c1nc(C(OC)c3ccccc3)nc(NCCCN3CCCCC3)c12 (centres unmarked) [Compound 13]	68
COC(=O)c1ccc2c(c1)[nH]c1nc(Cc3ccccc3)nc(NCCCCCCCCN)c12 [Compound 41]	39
COC(=O)c1ccc2c(c1)[nH]c1cc(Cc3ccsc3)nc(N[C@H]3CC[C@H](N)CC3)c12 [Compound 39]	114
COC(=O)c1ccc2c(c1)[nH]c1nc(Cc3ccccc3)nc(NCCNC3=NCCC3)c12 [Compound 59]	75
COC(=O)c1ccc2c(c1)[nH]c1nc(Cc3ccccc3)nc(NNc3ccc(S(C)(=O)=O)cc3)c12 [Compound 60]	23

SMILES	EC50 [nM]
COC(=O)c1ccc2c(c1)[nH]c1nc(Cc3ccccc3)nc(NCc3cnc(C)cn3)c12 [Compound 56]	48
COC(=O)c1ccc2c(c1)[nH]c1nc(Cc3cccc(F)c3)nc(NCCCN3CCCCC3)c12 [Compound 2]	20
COC(=O)c1ccc2c(c1)[nH]c1nc(Cc3ccccc3)nc(CCCCN3CCCCC3)c12 [Compound 17]	15
COC(=O)c1ccc2c(c1)[nH]c1nc(Cc3ccc4ccccc4c3)nc(NCCCN3CCCCC3)c12 [Compound 8]	150
COC(=O)c1ccc2c(c1)[nH]c1nc(C(C)c3ccccc3)nc(NCCCN3CCCCC3)c12 (centres unmarked) [Compound 18]	67
COC(=O)c1ccc2c(c1)[nH]c1nc(Cc3cccc(C(=O)C(F)(F)F)c3)nc(NCCCN3CCCCC3)c12 [Compound 7]	31
COC(=O)c1ccc2c(c1)[nH]c1nc(C(=O)c3ccccc3)nc(SCCCN3CCCCC3)c12 [Compound 16]	5
COC(=O)c1ccc2c(c1)[nH]c1nc(Cc3ccccc3)nc(NCCNS(C)(=O)=O)c12 [Compound 33]	33
Cn1nnc(-c2ccc3c(c2)[nH]c2ncnc(NCCCN4CCC(O)CC4)c23)n1 [Compound 28]	277
CNS(=O)(=O)c1cccc(Nc2ncnc3[nH]c4cc(C(=O)OC)ccc4c23)c1 [Compound 43]	263
COC(=O)c1ccc2c(c1)[nH]c1nc(Cc3ccccc3)nc(NCCN(C)C(C)=O)c12 [Compound 37]	83
COC(=O)c1ccc2c(c1)[nH]c1nc(Cc3cccs3)nc(NCCCN3CCCCC3)c12 [Compound 3]	8
COC(=O)c1ccc2c(c1)[nH]c1nc(Cc3cccc(CO)c3)nc(NCCCN(C)CCCN)c12 [Compound 19]	38
CNS(=O)(=O)c1ccc(CNc2nc(Cc3ccccc3)nc3[nH]c4cc(C(=O)OC)ccc4c23)cc1 [Compound 51]	62
COC(=O)c1ccc2c(c1)[nH]c1nc(Cc3ccccc3)nc(NCCN(C(C)C)C(C)C)c12 [Compound 61]	10.1
COC(=O)c1ccc2c(c1)[nH]c1nc(Cc3ccccc3)nc(NCCC#N)c12 [Compound 58]	79
COC(=O)c1ccc2c(c1)[nH]c1cc(Cc3cccnc3)cc(NCCCN3CCOCC3)c12 [Compound 38]	704
COC(=O)c1ccc2c(c1)[nH]c1nc(Cc3ccccc3)nc(NCCS(N)(=O)=O)c12 [Compound 50]	67
[H]/N=C(/N)NCCNc1nc(Cc2ccccc2)nc2[nH]c3cc(C(=O)OC)ccc3c12 [Compound 36]	68
